Test system: alkaline phosphatase
Assay: Administration of MetAP2 inhibitor to obese patients: alkaline phosphatase
Type: in vivo, human
Conditions: 0.1, 0.3 or 0.9 mg/m^2 administered biweekly for 26 days, versus placebo, FIG. 1
Procedure: Patients treated with either a placebo, 0.1 mg/m^2 (approximately 0.2 mg per dose) of the MetAP2 inhibitor O-(4-dimethylaminoethoxycinnamoyl)fumagillol, 0.3 mg/m^2 (approximately 0.6 mg per dose), or 0.9 mg/m^2 of calculated body surface area (approximately 1.9 mg per dose) administered biweekly for 26 days. […] This reduction is indicative of a decrease in hepatic injury or hepatobiliary dysfunction, which is consistent with reduced biliary sludging and/or gallstone formation.

CO[C@@H]1[C@H](OC(=O)C=Cc2ccc(OCCN(C)C)cc2)CC[C@]2(CO2)[C@H]1[C@@]1(C)O[C@@H]1CC=C(C)C [O-(4-dimethylaminoethoxycinnamoyl)fumagillol]
reduction in alkaline phosphatase: significant reduction in alkaline phosphatase was observed with increasing MetAP2 inhibitor dosage
